According to paper PMC12041489 (Scientific Reports, 2025):

system: fresh-cut apples; test: Anti-browning experiment on fresh-cut apples; set-up: species or system Fuji apples; settings: 50 µM, stored at 5 °C for 4 days

| SMILES | L* value of fresh-cut apples |
| --- | --- |
| O=c1cc(CO)occ1O [Kojic acid, kojic acid, reference compound] | 63.04 |
| O=C1O[C@H]([C@@H](O)CO)C(O)=C1O [Vc, ascorbic acid, reference compound] | 63.58 |

molecular target: T1, mushroom tyrosinase (Agaricus bisporus, UniProt C7FF04); test: not given; settings: read-out: Tyrosinase inhibitory activity IC50
T1 sequence (C7FF04 1-392 limits assumed): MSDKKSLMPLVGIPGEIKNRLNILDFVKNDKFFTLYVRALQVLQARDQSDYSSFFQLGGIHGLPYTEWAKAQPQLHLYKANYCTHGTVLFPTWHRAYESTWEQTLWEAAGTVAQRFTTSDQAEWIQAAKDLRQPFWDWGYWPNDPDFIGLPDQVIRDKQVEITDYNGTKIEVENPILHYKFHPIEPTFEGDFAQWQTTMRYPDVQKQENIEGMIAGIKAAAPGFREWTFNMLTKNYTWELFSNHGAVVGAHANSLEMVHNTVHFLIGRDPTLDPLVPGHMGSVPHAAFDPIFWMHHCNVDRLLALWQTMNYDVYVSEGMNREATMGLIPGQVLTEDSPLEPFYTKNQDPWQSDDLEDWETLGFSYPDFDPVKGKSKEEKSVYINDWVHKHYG

| SMILES | IC50 [µM] |
| --- | --- |
| Cc1ccccc1CC(=O)Nc1nnc(SCc2cn(Cc3cc(=O)c(O)co3)nn2)s1 [Compound 6j, N-(5-(((1-((5-hydroxy-4-oxo-4H-pyran-2-yl)methyl)-1H-1,2,3-triazol-4-yl)met-hyl)thio)-1,3,4-thiadiazol-2-yl)-2-(o-tolyl)acetamide] | 17.26 ± 0.038 |
| Cc1cccc(CC(=O)Nc2nnc(SCc3cn(Cc4cc(=O)c(O)co4)nn3)s2)c1 [Compound 6k, N-(5-(((1-((5-hydroxy-4-oxo-4H-pyran-2-yl)methyl)-1H-1,2,3-triazol-4-yl)met-hyl)thio)-1,3,4-thiadiazol-2-yl)-2-(m-tolyl)acetamide] | 13.81 ± 0.066 |
| Cc1ccc(CC(=O)Nc2nnc(SCc3cn(Cc4cc(=O)c(O)co4)nn3)s2)cc1 [Compound 6l, N-(5-(((1-((5-hydroxy-4-oxo-4H-pyran-2-yl)methyl)-1H-1,2,3-triazol-4-yl)met-hyl)thio)-1,3,4-thiadiazol-2-yl)-2-(p-tolyl)acetamide] | 3.289 ± 0.011 |
| COc1ccc(CC(=O)Nc2nnc(SCc3cn(Cc4cc(=O)c(O)co4)nn3)s2)cc1 [Compound 6p, N-(5-(((1-((5-hydroxy-4-oxo-4H-pyran-2-yl)methyl)-1H-1,2,3-triazol-4-yl)met-hyl)thio)-1,3,4-thiadiazol-2-yl)-2-(4-methoxyphenyl)acetamide] | 3.832 ± 0.005 |
| CC(=O)c1ccc(OCc2cn(Cc3cc(=O)c(O)co3)nn2)c(C)c1 [Compound 13e, 2-((4-((4-acetyl-2-methylphenoxy)methyl)-1H-1,2,3-triazol-1-yl)methyl)-5-hydr-oxy-4H-pyran-4-one] | 1.74 ± 0.048 |
| COc1ccc(C=O)c(OCc2cn(Cc3cc(=O)c(O)co3)nn2)c1 [Compound 13j, 2-((1-((5-hydroxy-4-oxo-4H-pyran-2-yl)methyl)-1H-1,2,3-triazol-4-yl)methox-y)-4-methoxybenzaldehyde] | 2.817 ± 0.007 |
| CC(=O)c1ccc(C)cc1OCc1cn(Cc2cc(=O)c(O)co2)nn1 [Compound 13n, 2-((4-((2-acetyl-5-methylphenoxy)methyl)-1H-1,2,3-triazol-1-yl)methyl)-5-hy-droxy-4H-pyran-4-one] | 6.818 ± 0.027 |
| CC(=O)c1cc(C)ccc1OCc1cn(Cc2cc(=O)c(O)co2)nn1 [Compound 13o, 2-((4-((2-acetyl-4-methylphenoxy)methyl)-1H-1,2,3-triazol-1-yl)methyl)-5-hy-droxy-4H-pyran-4-one] | 1.83 ± 0.042 |
| CC(=O)c1ccc(Cl)cc1OCc1cn(Cc2cc(=O)c(O)co2)nn1 [Compound 13q, 2-((4-((2-acetyl-5–CHlorophenoxy)methyl)-1H-1,2,3-triazol-1-yl)methyl)-5-hy-droxy-4H-pyran-4-one] | 3.03 ± 0.059 |
| CC(=O)c1ccc(Br)cc1OCc1cn(Cc2cc(=O)c(O)co2)nn1 [Compound 13r, 2-((4-((2-acetyl-5-bromophenoxy)methyl)-1H-1,2,3-triazol-1-yl)methyl)-5-hy-droxy-4H-pyran-4-one] | 3.33 ± 0.057 |
| CC(=O)c1ccc(F)cc1OCc1cn(Cc2cc(=O)c(O)co2)nn1 [Compound 13s, 2-((4-((2-acetyl-5-fluorophenoxy)methyl)-1H-1,2,3-triazol-1-yl)methyl)-5-hy-droxy-4H-pyran-4-one] | 2.58 ± 0.049 |

molecular target: T1, mushroom tyrosinase; test: biochemical; settings: not given

| SMILES | IC50 [µM] |
| --- | --- |
| O=C(Nc1nnc(SCc2cn(Cc3cc(=O)c(O)co3)nn2)s1)c1ccccc1 [Compound 6a, N-(5-(((1-((5-hydroxy-4-oxo-4H-pyran-2-yl)methyl)-1H-1,2,3-triazol-4-yl)meth-yl)thio)-1,3,4-thiadiazol-2-yl)benzamide] | 20.59 ± 0.037 |
| Cc1ccccc1C(=O)Nc1nnc(SCc2cn(Cc3cc(=O)c(O)co3)nn2)s1 [Compound 6b, N-(5-(((1-((5-hydroxy-4-oxo-4H-pyran-2-yl)methyl)-1H-1,2,3-triazol-4-yl)meth-yl)thio)-1,3,4-thiadiazol-2-yl)-2-methylbenzamide] | > 200 |
| Cc1cccc(C(=O)Nc2nnc(SCc3cn(Cc4cc(=O)c(O)co4)nn3)s2)c1 [Compound 6c, N-(5-(((1-((5-hydroxy-4-oxo-4H-pyran-2-yl)methyl)-1H-1,2,3-triazol-4-yl)meth-yl)thio)-1,3,4-thiadiazol-2-yl)-3-methylbenzamide] | > 200 |
| Cc1ccc(C(=O)Nc2nnc(SCc3cn(Cc4cc(=O)c(O)co4)nn3)s2)cc1 [Compound 6d, N-(5-(((1-((5-hydroxy-4-oxo-4H-pyran-2-yl)methyl)-1H-1,2,3-triazol-4-yl)meth-yl)thio)-1,3,4-thiadiazol-2-yl)-4-methylbenzamide] | > 200 |
| O=C(Nc1nnc(SCc2cn(Cc3cc(=O)c(O)co3)nn2)s1)c1ccc(Cl)cc1 [Compound 6e, 4–CHloro-N-(5-(((1-((5-hydroxy-4-oxo-4H-pyran-2-yl)methyl)-1H-1,2,3-triazol-4-yl)methyl)thio)-1,3,4-thiadiazol-2-yl)benzamide] | 6.073 ± 0.035 |
| O=C(Nc1nnc(SCc2cn(Cc3cc(=O)c(O)co3)nn2)s1)c1ccc(F)cc1 [Compound 6g, 4-fluoro-N-(5-(((1-((5-hydroxy-4-oxo-4H-pyran-2-yl)methyl)-1H-1,2,3-triazol-4-yl)methyl)thio)-1,3,4-thiadiazol-2-yl)benzamide] | 8.24 ± 0.023 |
| COc1ccc(C(=O)Nc2nnc(SCc3cn(Cc4cc(=O)c(O)co4)nn3)s2)cc1 [Compound 6h, N-(5-(((1-((5-hydroxy-4-oxo-4H-pyran-2-yl)methyl)-1H-1,2,3-triazol-4-yl)meth-yl)thio)-1,3,4-thiadiazol-2-yl)-4-methoxybenzamide] | 5.56 ± 0.078 |
| Nc1ccc(C(=O)Nc2nnc(SCc3cn(Cc4cc(=O)c(O)co4)nn3)s2)cc1 [Compound 6i, 4-amino-N-(5-(((1-((5-hydroxy-4-oxo-4H-pyran-2-yl)methyl)-1H-1,2,3-triazol-4-yl)methyl)thio)-1,3,4-thiadiazol-2-yl)benzamide] | 16.31 ± 0.016 |
| O=C(Cc1ccc(Cl)cc1)Nc1nnc(SCc2cn(Cc3cc(=O)c(O)co3)nn2)s1 [Compound 6m, 2-(4–CHlorophenyl)-N-(5-(((1-((5-hydroxy-4-oxo-4H-pyran-2-yl)methyl)-1H-1,2,3-triazol-4-yl)methyl)thio)-1,3,4-thiadiazol-2-yl)acetamide] | 10.17 ± 0.032 |
| O=C(Cc1ccc(Br)cc1)Nc1nnc(SCc2cn(Cc3cc(=O)c(O)co3)nn2)s1 [Compound 6n, 2-(4-bromophenyl)-N-(5-(((1-((5-hydroxy-4-oxo-4H-pyran-2-yl)methyl)-1H-1,2,3-triazol-4-yl)methyl)thio)-1,3,4-thiadiazol-2-yl)acetamide] | 12.36 ± 0.039 |
| O=C(Cc1ccc(F)cc1)Nc1nnc(SCc2cn(Cc3cc(=O)c(O)co3)nn2)s1 [Compound 6o, 2-(4-fluorophenyl)-N-(5-(((1-((5-hydroxy-4-oxo-4H-pyran-2-yl)methyl)-1H-1,2,3-triazol-4-yl)methyl)thio)-1,3,4-thiadiazol-2-yl)acetamide] | 11.98 ± 0.022 |
| O=Cc1cccc(OCc2cn(Cc3cc(=O)c(O)co3)nn2)c1 [Compound 13a, 3-((1-((5-hydroxy-4-oxo-4H-pyran-2-yl)methyl)-1H-1,2,3-triazol-4-yl)methoxy)-benzaldehyde] | 2.474 ± 0.023 |
| CC(=O)c1cccc(OCc2cn(Cc3cc(=O)c(O)co3)nn2)c1 [Compound 13b, 2-((4-((3-acetylphenoxy)methyl)-1H-1,2,3-triazol-1-yl)methyl)-5-hydroxy-4H-pyran-4-one] | 4.604 ± 0.046 |
| O=Cc1ccc(OCc2cn(Cc3cc(=O)c(O)co3)nn2)cc1 [Compound 13c, 4-((1-((5-hydroxy-4-oxo-4H-pyran-2-yl)methyl)-1H-1,2,3-triazol-4-yl)methoxy)benzaldehyde] | 4.55 ± 0.062 |
| CC(=O)c1ccc(OCc2cn(Cc3cc(=O)c(O)co3)nn2)cc1 [Compound 13d, 2-((4-((4-acetylphenoxy)methyl)-1H-1,2,3-triazol-1-yl)methyl)-5-hydroxy-4H-pyran-4-one] | 9.908 ± 0.044 |
| O=Cc1ccc(F)cc1OCc1cn(Cc2cc(=O)c(O)co2)nn1 [Compound 13f, 4-fluoro-2-((1-((5-hydroxy-4-oxo-4H-pyran-2-yl)methyl)-1H-1,2,3-triazol-4-yl)methoxy)benzaldehyde] | 5.961 ± 0.036 |
| O=Cc1ccccc1OCc1cn(Cc2cc(=O)c(O)co2)nn1 [Compound 13g, 2-((1-((5-hydroxy-4-oxo-4H-pyran-2-yl)methyl)-1H-1,2,3-triazol-4-yl)methoxy)benzaldehyde] | 2.1 ± 0.078 |
| CC(=O)c1ccccc1OCc1cn(Cc2cc(=O)c(O)co2)nn1 [Compound 13k, 2-((4-((2-acetylphenoxy)methyl)-1H-1,2,3-triazol-1-yl)methyl)-5-hydroxy-4H-pyran-4-one] | 1.517 ± 0.01 |
| CC(C)(C)c1cccc(C=O)c1OCc1cn(Cc2cc(=O)c(O)co2)nn1 [Compound 13l, 3-(tert-butyl)-2-((1-((5-hydroxy-4-oxo-4H-pyran-2-yl)methyl)-1H-1,2,3-triazol-4-yl)methoxy)benzaldehyde] | 4.98 ± 0.057 |
| O=Cc1ccc(Cl)cc1OCc1cn(Cc2cc(=O)c(O)co2)nn1 [Compound 13m, 4–CHloro-2-((1-((5-hydroxy-4-oxo-4H-pyran-2-yl)methyl)-1H-1,2,3-triazol-4-yl)methoxy)benzaldehyde] | 4.571 ± 0.004 |
| O=Cc1ccc(Br)cc1OCc1cn(Cc2cc(=O)c(O)co2)nn1 [Compound 13p, 4-bromo-2-((1-((5-hydroxy-4-oxo-4H-pyran-2-yl)methyl)-1H-1,2,3-triazol-4-yl)methoxy)benzaldehyde] | 4.231 ± 0.029 |
